# ChEMBL document CHEMBL1149729, “A bioassay for inhibition of serotonin release from bovine platelets” (J Nat Prod, 1992)
# Structures can show the parent of a compound that is named as a salt.
# Tests used:
# [1] = Antimigraine activity in human citreated platelet assessed as inhibition of [14C]serotonin release after 6 mins by scintillation counting; assay type: functional, cell-based; conditions: 0.1 h
# [2] = Antimigraine activity in ADP-stimulated bovine citreated platelet assessed as inhibition of [14C]serotonin release at 100 uM after 6 mins by scintillation counting; assay type: functional; conditions: Bos taurus, 0.1 h
# [3] = Antimigraine activity in bovine citreated platelet assessed as inhibition of [14C]serotonin release after 6 mins by scintillation counting; assay type: functional, cell-based; conditions: Bos taurus, 0.1 h
Compound,IC50 [1] [µM],inhibition at 100 µM [2] [%],IC50 [3] [µM]
C=C1C(=O)O[C@@H]2C3O[C@]3(C)CC/C=C(\C)CC[C@@H]12 (stereo not given in full),5.64,20.3,–
C=C1C(=O)O[C@@H]2C[C@@]3(C)CCCC(=C)[C@@H]3C[C@H]12 [ISOALANTOLACTONE],–,–,> 516
COc1ccc(CCN(C)CCCC(C#N)(c2ccc(OC)c(OC)c2)C(C)C)cc1OC (stereo not given) [VERAPAMIL HYDROCHLORIDE],770,–,578
